Reference: article PMC12010006, “Subnanomolar MAS-related G protein-coupled receptor-X2/B2 antagonists with efficacy in human mast cells and disease models” (Signal Transduction and Targeted Therapy, 2025)
Read-outs that look alike come from different tables or passages of the source. Positions of bridges follow the written chain, without caps; N, C: chain ends. Residues, ends and D or L forms follow the SMILES beside them.

Experiments:
MRGPRX2 [1] = biological target: T1, MRGPRX2 (Homo sapiens, UniProt Q96LB1); set-up: expressed in transfected cells; host or cells: LN229 human glioblastoma cells; plasmid pLXSN-MRGPRX2 (Addgene #213960); method as in earlier work; conditions: read-out: EC50 as MRGPRX2 agonist; cited from earlier work
T1 sequence (Q96LB1 1-330): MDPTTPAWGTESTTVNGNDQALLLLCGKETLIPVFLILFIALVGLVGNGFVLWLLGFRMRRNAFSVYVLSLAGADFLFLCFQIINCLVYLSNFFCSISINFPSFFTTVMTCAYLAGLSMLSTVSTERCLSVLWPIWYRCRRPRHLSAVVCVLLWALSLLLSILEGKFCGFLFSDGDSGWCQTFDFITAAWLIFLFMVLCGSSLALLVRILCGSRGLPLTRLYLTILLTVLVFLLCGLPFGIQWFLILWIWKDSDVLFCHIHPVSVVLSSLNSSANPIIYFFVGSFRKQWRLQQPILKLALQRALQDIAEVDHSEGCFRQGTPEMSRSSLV

MRGPRX2 [2] = biological target: T1, MRGPRX2; assay: β-arrestin recruitment assay (antagonist mode), β-arrestin-CHO cells recombinantly expressing MRGPRX2; assay type: cell-based; set-up: expressed in transfected cells; conditions: for Ki: versus CST-14 (EC80 1,000 nM, EC50 483 nM), Cheng-Prusoff, read-out: β-Arrestin assay Ki ± SEM
[3] = Metabolic stability in human liver microsomes; assay type: in vitro ADME; conditions: both sexes, human liver microsomes 0.25 mg/ml, compound 1 µM; for half-life at 1 µM: human, liver microsomes, read-out: T1/2 (half-life); for microsomal CLint at 1 µM: read-out: Clint (intrinsic clearance)
MRGPRX2 [4] = biological target: T1, MRGPRX2; assay: Ca2+ mobilization assay, LN229 cells overexpressing MRGPRX2; assay type: cell-based; set-up: expressed in transfected cells; host or cells: LN229 human glioblastoma cells; plasmid pLXSN-MRGPRX2 (Addgene #213960); conditions: for Ki: versus CST-14 (EC80 800 nM, EC50 452 nM), Cheng-Prusoff, read-out: Ca2+ assay Ki ± SEM
Experimental: Glioblastoma LN229-MRGPRX2 stably expressing MRGPRX2 (produced by retroviral transfection) were seeded into black sterile 96-well microplates at a density of 5 × 10^4 cells/well in 200 µL of DMEM/F12-Nut Mix medium, supplemented with 10% FCS, 100 U/mL of penicillin 100 µg/mL of streptomycin, and 200 µg/mL of G418 and incubated for 18–22 h.
The next day Fluo-4 AM Solution (1 mM) (Thermo Fisher Scientific) was prepared and used to prepare cell loading dye solution consisting of 4970 µL of Hank’s Buffered Saline Solution (HBSS) buffer, 15 µL of 20% Pluronic-F and 15 µL of 1 mM Fluo-4 AM. Next, the cell medium was removed and exchanged for 40 µL of dye solution per well (final concentration of Fluo-4 AM: 3 µM). The cell plate was incubated for 60 min in the dark at room temperature, then the dye solution was removed and replaced by 189 µL HBSS. Subsequently, 1 µL of antagonist diluted in DMSO was added and incubated for 30 min at room temperature and in the dark (final DMSO concentration 0.5%, v/v). CST-14 or another agonist prepared in HBSS as well as carbachol (final concentration 100 µM) were pipetted (10 µL) using a FlexStation® 3 Multi-Mode Microplate Reader. For the determination of baseline fluorescence, HBSS buffer containing solvent of the investigated compound was used. Fluorescence was measured for 120 intervals of 1 s (number of flashes: 10) at a wavelength of 525 nm (excitation 485 nm) using the SoftMax® Pro5.1 Microplate Data Acquisition & Analysis Software. Three independent experiments were performed in duplicates. Measurements are provided in relative fluorescence units and normalized to the maximal effect of CST-14.

[5] = MTT cytotoxicity assay, 1321N1 astrocytoma cells; assay type: cell-based; conditions: human; for cytotoxicity at 72 h, 10000 nM: up to 10,000 nM, read-out: Cytotoxicity % effect
Experimental: Potential cytotoxicity of 24 and its similarly potent analogs 27 and 30 was assessed in 3-(4,5-dimethylthiazol-2-yl)-2,5-diphenyl-2H-tetrazolium bromide (MTT) assays performed on human 1321N1 astrocytoma cells (Supplementary Table S3). This cell line was chosen since it is well-established for the screening of cytotoxic drugs, making it a reliable choice for assessing cytotoxicity.[46]
For the experiment, 1321N1 astrocytoma cells were seeded at a density of 1 × 10^5 cells/well in 180 µL of cell medium into transparent 96-well plates, whereby the outer wells only contained buffer (to avoid an edge effect). Cells were incubated for 24 h at 37°C, 5% CO2. Compound dilutions were prepared in DMSO. […] Subsequently, 20 µL of these compound dilutions were added to each well so that astrocytoma cells were incubated with varying concentrations of MRGPRX2 antagonists (0.01 µM–10 µM) at 37° C, 5% CO2. 5-Fluoruracil, a cytostatic drug, served as a positive control. Medium-containing DMSO in the absence of a compound served as a negative control. After 71 h, […] of MTT solution (5 mg/mL, prepared in Millipore water) was added to each well (final concentration 0.5 mg/mL) and cells were incubated again for another hour. Subsequently, the medium was removed, and cells were lyzed by adding 100 µL of DMSO per well. In order to dissolve the produced formazan dye crystals, plates were incubated for 2 min on a rotary shaker (150 rpm). Afterward, the UV absorbance at 570 nm was measured by using SoftMax® Pro5.1 Microplate Data Acquisition & Analysis Software (Molecular Devices, Sunnyvale, CA, USA). The UV absorbance at 690 nm was measured directly afterward to eliminate the background absorbance of residual medium and cell components. The values of the measured UV absorbance at 690 nm were subtracted from the values obtained by the measurement of UV absorbance at 570 nm. Three to four independent experiments were performed, each in triplicate.

MRGPRX2 [6] = biological target: T1, MRGPRX2; assay: β-arrestin assay (agonist mode), β-arrestin CHO cells recombinantly expressing MRGPRX2; assay type: cell-based; conditions: for EC50: agonist test, read-out: β-Arrestin assay EC50 ± SEM; for β-Arrestin assay % activation: normalized to CST-14 (EC80 5,000 nM)
Text: Eurofins DiscoverX (Fremont, CA, USA) provided engineered Chinese hamster ovary (CHO) cells stably expressing β-arrestin-2 fused to a large β-galactosidase fragment (enzyme acceptor, EA). These CHO-K1-β-arrestin-2 cells were commercially available (93-0164). CHO-K1-β-arrestin-2 cells that additionally expressed MRGPRX1, -2, or -4 fused to the fragment ProLink™ (PK) were also purchased from the same company (93-0919C2, 93-0309C2, and 3-0541C2A, respectively). CHO cells expressing MRGPRX3 were generated as previously […].[31] The cells were grown in F-12 Ham Nutrient Mixture (Life Technologies) supplemented with 10% FBS, 100 U/mL of penicillin, 100 µg/mL of streptomycin (PAN-Biotech), 300 μg/mL of hygromycin B (PAN-Biotech), and 800 μg/mL of gentamicin (PAN-Biotech) at 37 °C and 5% CO2.).
The assays were carried out as previously described.[22] […] After 30 min of incubation at 37 °C and 5% CO2, Cortistatin-14 (CST-14, Bioscience, Bristol, United Kingdom) or another MRGPRX2 agonist that served as a standard agonist was added, and the mixture was incubated for 90 min at 37 °C and 5% CO2. Next, a detection reagent (50 µL, DiscoverX) was added, and the mixture was incubated at room temperature in the dark for 60 min. Chemiluminescence was measured on a Mithras LB 940 plate reader (Berthold Technologies, Bad Wildbad, Germany). The results represent means ± SEM of three to five independent experiments, each in duplicates.
^d β-Arrestin CHO cells recombinantly expressing MRGPRX2
^f Percentage of activation of normalized to CST-14 (EC80 5,000 nM)

MRGPRX2 [7] = biological target: T1, MRGPRX2; assay: TRUPATH Gαq dissociation assay, LN229 cells expressing MRGPRX2; assay type: cell-based; set-up: expressed in transfected cells; host or cells: LN229 human glioblastoma cells; plasmid pLXSN-MRGPRX2 (Addgene #213960); conditions: read-out: EC50 of agonist, Gαq dissociation
Experimental: (§1) Fig. 3 Biological characterization of PSB-172656. a Selectivity of PSB-172656 (100 nM) for MRGPRX2 over MRGPRX1, MRGPRX3, and MRGPRX4 measured in β-arrestin assays utilizing β-arrestin-CHO cells with recombinant expression of the respective receptor. MRGPRX1 was activated by BAM-22P (8.5 µM),[19] MRGPRX2 was activated by CST-14 (1 µM), MRGPRX3 was activated by PSB-20294 (10 µM), MRGPRX4 was activated by PSB-18061 (2.6 µM).[44] Data represent mean values ± SEM of 3-4 biological replicates, performed in duplicates. […] Data are means ± SEM of 3 biological replicates, in duplicates. Statistical significance was determined by one-way ANOVA (Tukey’s multiple comparison) test (ns P > 0.05). […] Data are means ± SEM of 3 biological replicates, performed in duplicates. e Shift assay to determine inhibition type of PSB-172656 versus CST-14. […] Extrapolated data were not used for analysis but only shown for a comprehensive view. f Schild plot for the effect of PSB-172656 on the concentration-response curves for CST-14. […]
(§2) To further investigate PSB-172656 signaling, direct activation of the relevant G protein subunits, Gαq and Gαi1,[32] was studied. This was assessed using G protein dissociation assays and LN229 cells stably overexpressing MRGPRX2 while transiently expressing the investigated G protein (Fig. 3c, d).[47]

mouse MRGPRB2 = biological target: T2, mouse MRGPRB2 (Mus musculus, UniProt Q3KNA1); set-up: method as in PMID 38184723; conditions: cited from earlier work
T2 construct: expressed in transfected cells; host or cells: 1321N1 astrocytoma cells; plasmid pLVX-IRES-MRGPRB2-mCherry (Addgene #213961)
T2 sequence (Q3KNA1 1-338): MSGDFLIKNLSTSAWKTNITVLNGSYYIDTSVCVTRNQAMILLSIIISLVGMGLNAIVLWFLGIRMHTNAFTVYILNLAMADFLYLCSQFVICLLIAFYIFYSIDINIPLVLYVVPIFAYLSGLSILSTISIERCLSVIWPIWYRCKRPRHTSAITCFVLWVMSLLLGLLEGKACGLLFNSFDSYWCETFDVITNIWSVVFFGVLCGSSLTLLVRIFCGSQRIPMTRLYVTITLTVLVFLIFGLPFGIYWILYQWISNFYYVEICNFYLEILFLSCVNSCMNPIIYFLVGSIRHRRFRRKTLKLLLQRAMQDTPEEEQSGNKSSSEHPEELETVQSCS

MRGPRX2 [8] = biological target: T1, MRGPRX2; assay: TRUPATH Gαi1 dissociation assay, LN229 cells expressing MRGPRX2; assay type: cell-based; set-up: expressed in transfected cells; host or cells: LN229 human glioblastoma cells; plasmid pLXSN-MRGPRX2 (Addgene #213960); conditions: read-out: EC50 of agonist, Gαi1 dissociation
Experimental: as §1, §2

Ki (MRGPRX2 [2]) | half-life at 1 µM [3] | microsomal CLint at 1 µM [3] | fold less potent than 24 (MRGPRX2 [4]) | Ki (MRGPRX2 [4]) | EC50 (MRGPRX2 [6]) | β-Arrestin assay % activation (MRGPRX2 [6]) | MRGPRX2 antagonistic potency in Ca2+ assay, in words (MRGPRX2 [4]; versus CST-14) | EC80 of agonist, β-arrestin assay (MRGPRX2 [2]) | EC50 (MRGPRX2 [2]; agonist concentration-response curve, read-out: EC50 of agonist, β-arrestin assay) | EC50 (MRGPRX2 [2]; without antagonist, read-out: EC50 of CST-14, shift assay) | EC50 (MRGPRX2 [7]) | EC80 of agonist, Ca2+ assay (MRGPRX2 [4]) | EC50 (MRGPRX2 [4]; agonist concentration-response curve) | EC50 (MRGPRX2 [8]) | SMILES | EC50 (MRGPRX2 [1]) | CC50 at 72 h [5] | cytotoxicity at 72 h, 10000 nM [5] | EC80 of agonist at MRGPRB2, Ca2+ assay (mouse MRGPRB2)
– | – | – | – | – | – | – | – | – | – | – | – | – | – | – | CN(C)[C@@H]1CCN(c2cc(-c3ccccc3)nc3ccnn23)C1 [ZINC-3573] | 0.76 µM | – | – | –
0.0285 ± 0.0239 µM | 10.6 min | 131 µL/min/mg | 5 fold | 0.00664 µM | > 10 µM | 0% | – | – | – | – | – | – | – | – | CCc1c(C(C)C)[nH]c2nc3cc(C)c(C)cc3n2c1=O [Compound 27] | – | > 10 µM | 28% | –
0.00589 ± 0.00286 µM | 14 min | 100 µL/min/mg | – | 0.000455 µM | > 10 µM | -3% | subnanomolar potencies | – | – | – | – | – | – | – | CCc1c(C(C)C)[nH]c2nc3cc(F)ccc3n2c1=O [Compound 30, 3-ethyl-8-fluoro-2-isopropylbenzo[4,5]imidazo[1,2-a]pyrimidin-4(1H)-one] | – | > 10 µM | 30% | –
– | – | – | – | – | – | – | – | 1.0 µM | 0.483 µM | 0.283 ± 0.045 µM | 0.499 ± 0.207 µM | 0.8 µM | 0.452 ± 0.049 µM | 0.113 ± 0.016 µM | C[C@@H](O)[C@@H]1NC(=O)[C@H](CCCCN)NC(=O)[C@H](Cc2c[nH]c3ccccc23)NC(=O)[C@H](Cc2ccccc2)NC(=O)[C@H](Cc2ccccc2)NC(=O)[C@H](CC(N)=O)NC(=O)[C@H](CCCCN)NC(=O)[C@@H](NC(=O)[C@@H]2CCCN2)CSSC[C@@H](C(=O)N[C@@H](CCCCN)C(=O)O)NC(=O)[C@H](CO)NC(=O)[C@H](CO)NC(=O)[C@H](Cc2ccccc2)NC1=O [CST-14, reference compound] (H-PCKNFFWKTFSSCK-OH; disulfide 2-13; N-terminus and C-terminus assumed) | – | – | – | 2 µM
